The conditions of series [1]: 101 kPa, Liquid; for viscosity: Capillary tube (Ostwald / Ubbelohde) method; for mass density: Pycnometric method.
Series [2] can be described thus: xn = mol fraction of the nth substance listed. The note with it: 101 kPa, Liquid, x2 = 0; for viscosity: Capillary tube (Ostwald / Ubbelohde) method; for mass density: Pycnometric method.

In the NIST ThermoML archive (doi:10.1021/je200150r) one finds viscosity and mass density data, which are given here for three molecules.

For orientation: viscosity means the resistance of a fluid to flow. The term mass density denotes the mass of a sample divided by its volume.

± gives the expanded uncertainty stated by the source.

Take `CCC(C)=O` [butanone]: the viscosity in series [1] (303.15 K) was found to be 0.362 ± 0.005 mPa·s; in series [1] (308.15 K), 0.345 ± 0.005 mPa·s; in series [1] (313.15 K), 0.33 ± 0.004 mPa·s; in series [1] (318.15 K), 0.316 ± 0.004 mPa·s; in series [1] (323.15 K), 0.303 ± 0.004 mPa·s. Also, the mass density in series [1] (303.15 K) is given as 794 ± 0.9 kg/m3; in series [1] (308.15 K), 788.8 ± 0.9 kg/m3; in series [1] (313.15 K) it was 783.5 ± 0.9 kg/m3; in series [1] (318.15 K), 778.3 ± 0.9 kg/m3; in series [1] (323.15 K), 773 ± 0.9 kg/m3.
Consider `OCc1ccccc1` [benzenemethanol], for which the viscosity in series [1] (303.15 K) stood at 4.689 ± 0.059 mPa·s; in series [1] (308.15 K) it was 4.058 ± 0.051 mPa·s; in series [1] (313.15 K) it was 3.531 ± 0.044 mPa·s; in series [1] (318.15 K) it was 3.103 ± 0.039 mPa·s; in series [1] (323.15 K), 2.747 ± 0.035 mPa·s. Further, the mass density was 1037.6 ± 0.9 kg/m3 in series [1] (303.15 K); 1033.8 ± 0.9 kg/m3 in series [1] (308.15 K); 1030.1 ± 0.9 kg/m3 in series [1] (313.15 K); 1026.3 ± 0.9 kg/m3 in series [1] (318.15 K); 1022.5 ± 0.9 kg/m3 in series [1] (323.15 K).
Take `CCC(C)=O` [butanone] + OCc1ccccc1: the viscosity in series [2] (303.15 K) was found to be 0.362 ± 0.005 mPa·s; in series [2] (308.15 K) it was 0.345 ± 0.005 mPa·s; in series [2] (313.15 K), 0.33 ± 0.004 mPa·s; in series [2] (318.15 K), 0.316 ± 0.004 mPa·s; in series [2] (323.15 K), 0.303 ± 0.004 mPa·s. The mass density is 794 ± 0.9 kg/m3 in series [2] (303.15 K); 788.8 ± 0.9 kg/m3 in series [2] (308.15 K); 783.5 ± 0.9 kg/m3 in series [2] (313.15 K); 778.3 ± 0.9 kg/m3 in series [2] (318.15 K); 773 ± 0.9 kg/m3 in series [2] (323.15 K).
